The values below come from patent US8067615B2, “Sulphonylpyrroles” (4SC AG, priority 2004, dated 2011).

The test system of data set [1] is histone H3K23 hyperacetylation in HeLa cervical carcinoma cells. The data set is described as follows: Cellular histone H3 hyperacetylation assay. Type of data set: cell-based. Particulars: Homo sapiens, 24 h with compound, read-out: Induction of histone H3K23 hyperacetylation EC50. The text has this: To assess the cellular efficacy of an histone deacetylase inhibitor in vitro, an assay was set up in black clear-bottom 96-well plates and optimized for use on the Cellomics “ArrayScan II” platform for a quantitative calculation of […] acetylation. The protocol uses a polyclonal rabbit antibody, specifically binding to acetylated lysine 23 of human histone H3 on fixed cells with an Alexa Fluor 488 labeled goat anti rabbit-IgG used for counterstaining (Braunger et al. AACR annual conference 2003, Abstract 4556). 5×10^3 HeLa cervical carcinoma cells/well (ATCC CCL-2) in 200 μl Dulbecco's modified Eagle's medium (DMEM) containing 10% fetal calf serum were seeded at day 1 in Packard view plates and incubated for 24 h under standard cell culture conditions. On day 2, 2 μl test compound (100× final concentration) was added and incubation continued for further 24 h. On day 3, the culture medium was discarded and attached cells fixed for 15 min at room temperature by addition of 100 μl fixation buffer (3.7% v:v formaldehyde in phosphate buffered saline/PBS). After discarding the fixation buffer and one wash with PBS, cells were permeabilized at room temperature by addition of 100 μl/well permeabilization buffer (30.8 mM NaCl, 0.54 mM Na2HPO4, 0.31 mM KH2PO4, 5% v:v Triton X-100) for 15 min at room temperature. After discarding the permeabilization buffer and addition of 100 μl/well blocking solution (PBS with 0.05% v:v Tween 20 and 5% w:v milk powder) for 30 min at room temperature, the 1st antibody (anti-K23 histone H3 antibody, Cell Signaling No. 9674) in blocking solution (50 μl/well) was added. After incubation for 1 h at 37° C., the wells were washed 5 times for 5 min at room temperature with wash buffer (PBS with 0.05% v:v Tween 20) before addition of the 2nd antibody (goat-anti-rabbit Alexa Fluor 488; MoBiTec No. A-11008) in blocking solution (50 μl/well). After further incubation for 30 min at 37° C., wells were washed 5 times for 5 min at RT with 100 μl wash buffer at room temperature. Finally, 100 μl/well PBS were added and image analysis performed on the Cellomics “ArrayScan II” platform. For calculation of EC50 values, the nuclear fluorescence in cells treated with and without a reference HDAC inhibitor like SAHA or NVP-LBH-589 were taken as a positive and negative control, respectively. For EC50 determination, the percentage of positive cells was determined and EC50 calculation done from concentration-effect curves by means of non-linear regression.

Data set [2] has as its system HeLa cervical carcinoma cells. The data set is described as follows: Cellular cytotoxicity assay (Alamar Blue / Resazurin). Type of data set: cell-based. Particulars: Homo sapiens, 48 hours incubation. The procedure:
The anti-proliferative activity of the histone deacetylase inhibitory compounds as described herein, was evaluated with the HeLa cervical carcinoma cell line (ATCC CCL2) using the Alamar Blue (Resazurin) cell viability assay (O'Brien et al. Eur J Biochem 267, 5421-5426, 2000). Resazurin is reduced to the fluorescent resorufin by cellular dehydrogenase activity, correlating with viable, proliferating cells. Test compounds were dissolved as 10 mM solutions in dimethylsulfoxide (DMSO) and subsequently diluted in semi-logarithmic steps. HeLa cells were seeded into 96 well flat bottom plates at a density of 3000 cells per well in a volume of […] per well. 24 hours after seeding 1 μl each of the compound dilutions were added into each well of the 96 Well plate. Each compound dilution was tested as quadruplicates. Wells containing untreated control cells were filled with 200 μl DMEM medium containing 0.5% v:v DMSO. The cells were then incubated with the substances for 48 hours at 37° C. in a humidified atmosphere containing 5% carbon dioxide. To determine the viability of the cells, 20 μl of an Resazurin solution (Sigma; 90 mg/l) were added. After 4 hours incubation at 37° C. the fluorescence was measured at an […] of 544 nm and an emission of 590 nm. For the calculation of the cell viability the emission value from untreated cells was set as 100% viability and the emission rates of treated cells were set in relation to the values of untreated cells. Viabilities were expressed as % values. The corresponding IC50 values of the compounds for cytotoxic activity are determined from the concentration-effect curves by means of non-linear regression.
(In general: Resazurin is reduced to fluorescent resorufin, in cell work by metabolically active cells.)

The structures appear in SMILES notation.

For the compound `Cc1ccc(S(=O)(=O)n2ccc(C=CC(=O)NO)c2)cc1` [Compound 1, (E)-N-Hydroxy-3-[1-(toluene-4-sulfonyl)-1-H-pyrrol-3-yl]-acrylamide], the EC50 – broadly, the concentration at which the effect is half-maximal – in data set [1] lay within 2.15 to 51.3 µM. In addition, in data set [2], the IC50 – broadly, the midpoint of a concentration-inhibition curve – is 0.8 to 21.6 µM.
For `O=C(/C=C/c1ccn(S(=O)(=O)Cc2ccccc2)c1)NO` [Compound 2, N-Hydroxy-3-(1-phenylmethanesulfonyl-1H-1-pyrrol-3-yl)-acrylamide], in that order: 2.15 to 51.3 µM and 0.8 to 21.6 µM.
For `O=C(/C=C/c1ccn(S(=O)(=O)c2ccc(-c3ccccc3)cc2)c1)NO` [Compound 3, (E)-3-[1-(Biphenyl-4-sulfonyl)-1H-pyrrol-3-yl]-N-hydroxy-acrylamide] the same measures were 2.15 to 51.3 µM and 0.8 to 21.6 µM.
For `CN(C)c1ccc(S(=O)(=O)n2ccc(C=CC(=O)NO)c2)cc1` [Compound 4, (E)-3-[1-(4-Dimethylamino-benzenesulfonyl)-1H-1-pyrrol-3-yl]-N-hydroxy-acrylamide], in that order: 2.15 to 51.3 µM and 0.8 to 21.6 µM.
For the compound `Nc1ccccc1NC(=O)C=Cc1ccn(S(=O)(=O)c2ccc(-c3ccccc3)cc2)c1` [Compound 7, (E)-N-(2-Amino-phenyl)-3-[1-(biphenyl-4-sulfonyl)-1H-1-pyrrol-3-yl]-acrylamide], the EC50 in data set [1] lay in the range of 2.15 to 51.3 µM. The same compound returned an IC50 in data set [2] of 0.8 to 21.6 µM.
For `CN(C)c1ccc(S(=O)(=O)n2ccc(/C=C/C(=O)Nc3ccccc3N)c2)cc1` [Compound 8, (E)-N-(2-Amino-phenyl)-3-[1-(4-dimethylamino-benzenesulfonyl)-1H-pyrrol-3-yl]-acrylamide], in that order: 2.15 to 51.3 µM and 0.8 to 21.6 µM.
Regarding `CN(CCc1cc2ccccc2[nH]1)Cc1ccc(S(=O)(=O)n2ccc(/C=C/C(=O)NO)c2)cc1` [Compound 9, (E)-N-Hydroxy-3-(1-[4-(([2-(1H-indol-2-yl)-ethyl]-methyl-amino)-methyl)-benzenesulfonyl]-1H-pyrrol-3-yl)-acrylamide], the EC50 in data set [1] fell in the range of 2.15 to 51.3 µM. Moreover, the IC50 in data set [2] was 0.07 to 5 µM.
For `CN(C)Cc1ccc(S(=O)(=O)n2ccc(/C=C/C(=O)NO)c2)cc1` [Compound 10, (E)-3-[1-(4-Dimethylaminomethyl-benzenesulfonyl)-1H-pyrrol-3-yl]-N-hydroxy-acrylamide] the same measures were 2.15 to 51.3 µM and 0.07 to 5 µM.
`Nc1ccccc1NC(=O)/C=C/c1ccn(S(=O)(=O)c2ccc(-c3cccnc3)cc2)c1` [Compound 21, (E)-N-(2-Amino-phenyl)-3-[1-(4-pyridin-3-yl-benzenesulfonyl)-1H-pyrrol-3-yl]-acrylamide]: the melting point (usually the temperature of the solid-liquid transition) is 199.7 to 202.3 °C. The compound further gave an IC50 in data set [2] of 0.07 to 5 µM.
For `Nc1ccccc1NC(=O)C=Cc1ccn(S(=O)(=O)c2ccc(-c3cn[nH]c3)cc2)c1` [Compound 22, (E)-N-(2-Amino-phenyl)-3-{1-[4-(1H-1-pyrazol-4-yl)-benzenesulfonyl]-1H-pyrrol-3-yl}-acrylamide], in that order: 232.3 to 240.9 °C and 0.07 to 5 µM.
`O=C(/C=C/c1ccn(S(=O)(=O)c2cccc(-c3ccccc3)c2)c1)NO` [Compound 23, (E)-3-[1-(Biphenyl-3-sulfonyl)-1H-pyrrol-3-yl]-N-hydroxy-acrylamide] displayed a melting point of 114 to 159.4 °C. The IC50 in data set [2] was in the range of 0.07 to 5 µM.
For `O=C(/C=C/c1ccn(S(=O)(=O)c2ccc(-n3cccn3)cc2)c1)NO` [Compound 25, (E)-N-Hydroxy-3-[1-(4-pyrazol-1-yl-benzenesulfonyl)-1H-pyrrol-3-yl]-acrylamide], in that order: 160.7 to 166.6 °C and 0.07 to 5 µM.
In the case of `O=C(/C=C/c1ccn(S(=O)(=O)c2ccc(CN3CCOCC3)cc2)c1)NO` [Compound 27, (E)-N-Hydroxy-3-[1-(4-morpholin-4-ylmethyl-benzenesulfonyl)-1H-pyrrol-3-yl]acrylamide], the melting point was in the range of 168 to 170 °C. Moreover, the EC50 in data set [1] fell in the range of 2.15 to 51.3 µM. Moreover, the IC50 in data set [2] is 0.07 to 5 µM.
